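Five concentrations, 48 hours, 96-well plates. TGI: concentration producing complete growth inhibition.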
What was measured:
Assay in all cases: NCI anticancer screen, dose series, 48 h
[1] = test system: 786-0 renal
[2] = test system: NCI/ADR-RES ovarian
[3] = test system: SK-MEL-5 melanoma
[4] = test system: SF-268 CNS
[5] = test system: EKVX NSCLC
[6] = test system: CCRF-CEM leukemia
[7] = test system: M14 melanoma
[8] = test system: UACC-62 melanoma
[9] = test system: SW-620 colon
[10] = test system: SR leukemia
[11] = test system: A498 renal
[12] = test system: NCI-H226 lung
[13] = test system: MOLT-4 leukemia
[14] = test system: SK-MEL-2 melanoma
[15] = test system: SNB-75 CNS
[16] = test system: CAKI-1 renal
[17] = test system: OVCAR-5 ovarian
[18] = test system: PC-3 prostate
[19] = test system: RPMI-8226 leukemia
[20] = test system: OVCAR-4 ovarian
[21] = test system: SF-539 CNS
[22] = test system: A549 NSCLC
[23] = test system: SK-MEL-28 melanoma
[24] = test system: HS 578T breast
[25] = test system: IGROV1 ovarian
[26] = test system: LOX IMVI melanoma
[27] = test system: UACC-257 melanoma
[28] = test system: UO-31 renal
[29] = test system: MDA-MB-231 breast
[30] = test system: SN12C renal
[31] = test system: MALME-3M melanoma
[32] = test system: U251 CNS
[33] = test system: HCT-15 colon
[34] = test system: TK-10 renal
[35] = test system: OVCAR-3 ovarian
[36] = test system: DU-145 prostate
[37] = test system: NCI-H522 lung
[38] = test system: HT29 colon
[39] = test system: RXF 393 renal
[40] = test system: SF-295 CNS
[41] = test system: HL-60(TB) leukemia
[42] = test system: NCI-H460 lung
[43] = test system: SNB-19 CNS
[44] = test system: KM12 colon
[45] = test system: COLO 205 colon
[46] = test system: MDA-MB-435
[47] = test system: NCI-H23 lung
[48] = test system: MDA-N
[49] = test system: HOP-92 NSCLC
[50] = test system: HCT-116 colon
[51] = test system: ACHN renal
[52] = test system: MCF7 breast
[53] = test system: OVCAR-8 ovarian
[54] = test system: K-562 leukemia
[55] = test system: HOP-62 NSCLC
[56] = test system: T-47D breast
[57] = test system: HCC-2998 colon
[58] = test system: SK-OV-3 ovarian
[59] = test system: BT-549 breast

Structure (SMILES): C[C@]12CCC(O)CC1=CC[C@@H]1[C@@H]2CC[C@]2(C)C(O)[C@H](n3ccnc3)C[C@@H]12 (stereo not given in full)
- TGI [1]: > 100 µM
- TGI [2]: > 100 µM
- TGI [3]: > 100 µM
- TGI [4]: > 100 µM
- TGI [5]: > 100 µM
- TGI [6]: > 100 µM
- TGI [7]: > 100 µM
- TGI [8]: > 100 µM
- TGI [9]: > 100 µM
- TGI [10]: > 100 µM
- TGI [11]: > 100 µM
- TGI [12]: > 100 µM
- TGI [13]: 80.1 µM
- TGI [14]: > 100 µM
- TGI [15]: > 100 µM
- TGI [16]: > 100 µM
- TGI [17]: > 100 µM
- TGI [18]: > 100 µM
- TGI [19]: > 100 µM
- TGI [20]: > 100 µM
- TGI [21]: > 100 µM
- TGI [22]: > 100 µM
- TGI [23]: > 100 µM
- TGI [24]: > 100 µM
- TGI [25]: > 100 µM
- TGI [26]: > 100 µM
- TGI [27]: > 100 µM
- TGI [28]: > 100 µM
- TGI [29]: > 100 µM
- TGI [30]: > 100 µM
- TGI [31]: > 100 µM
- TGI [32]: > 100 µM
- TGI [33]: > 100 µM
- TGI [34]: > 100 µM
- TGI [35]: > 100 µM
- TGI [36]: > 100 µM
- TGI [37]: > 100 µM
- TGI [38]: > 100 µM
- TGI [39]: > 100 µM
- TGI [40]: > 100 µM
- TGI [41]: 38.3 µM
- TGI [42]: > 100 µM
- TGI [43]: > 100 µM
- TGI [44]: > 100 µM
- TGI [45]: > 100 µM
- TGI [46]: > 100 µM
- TGI [47]: > 100 µM
- TGI [48]: > 100 µM
- TGI [49]: > 100 µM
- TGI [50]: > 100 µM
- TGI [51]: > 100 µM
- TGI [52]: > 100 µM
- TGI [53]: > 100 µM
- TGI [54]: > 100 µM

Structure (SMILES): N#Cc1ccc(NC(=NCC(=O)O)Nc2cccc3ccccc23)cc1
- TGI [1]: > 10 µM
- TGI [55]: > 10 µM
- TGI [3]: > 10 µM
- TGI [4]: > 10 µM
- TGI [5]: > 10 µM
- TGI [6]: > 10 µM
- TGI [56]: > 10 µM
- TGI [7]: > 10 µM
- TGI [8]: > 10 µM
- TGI [9]: > 10 µM
- TGI [10]: > 10 µM
- TGI [13]: > 10 µM
- TGI [15]: > 10 µM
- TGI [16]: > 10 µM
- TGI [57]: > 10 µM
- TGI [18]: > 10 µM
- TGI [19]: > 10 µM
- TGI [22]: > 10 µM
- TGI [23]: > 10 µM
- TGI [25]: > 10 µM
- TGI [27]: > 10 µM
- TGI [29]: > 10 µM
- TGI [30]: > 10 µM
- TGI [31]: > 10 µM
- TGI [33]: > 10 µM
- TGI [34]: > 10 µM
- TGI [36]: > 10 µM
- TGI [38]: > 10 µM
- TGI [39]: > 10 µM
- TGI [40]: > 10 µM
- TGI [58]: > 10 µM
- TGI [41]: > 10 µM
- TGI [44]: > 10 µM
- TGI [45]: > 10 µM
- TGI [47]: > 10 µM
- TGI [48]: > 10 µM
- TGI [52]: > 10 µM
- TGI [53]: > 10 µM
- TGI [54]: > 10 µM

Structure (SMILES): CN(CCC(=O)N1CC(CCl)c2ccc([N+](=O)[O-])cc21)CCC(=O)N1CC(CCl)c2ccc([N+](=O)[O-])cc21 (stereo not given)
- TGI [1]: 25 µM
- TGI [55]: > 100 µM
- TGI [3]: 24.8 µM
- TGI [4]: 28.5 µM
- TGI [5]: 42.7 µM
- TGI [6]: > 100 µM
- TGI [59]: > 100 µM
- TGI [56]: > 100 µM
- TGI [7]: 21.7 µM
- TGI [8]: 24.7 µM
- TGI [9]: 29 µM
- TGI [11]: 35.3 µM
- TGI [12]: > 100 µM
- TGI [13]: 24.2 µM
- TGI [14]: 26 µM
- TGI [15]: 19 µM
- TGI [16]: 48 µM
- TGI [17]: > 100 µM
- TGI [57]: 18.2 µM
- TGI [18]: > 100 µM
- TGI [19]: 13.9 µM
- TGI [20]: > 100 µM
- TGI [21]: 27.7 µM
- TGI [22]: > 100 µM
- TGI [23]: 28.9 µM
- TGI [24]: 17.7 µM
- TGI [26]: 21.7 µM
- TGI [27]: 21.6 µM
- TGI [29]: 44.5 µM
- TGI [30]: 41.1 µM
- TGI [31]: 23.7 µM
- TGI [32]: > 100 µM
- TGI [33]: 25.9 µM
- TGI [34]: 32 µM
- TGI [35]: 23.7 µM
- TGI [36]: > 100 µM
- TGI [37]: 21.7 µM
- TGI [38]: 24 µM
- TGI [40]: 39.5 µM
- TGI [58]: > 100 µM
- TGI [42]: > 100 µM
- TGI [43]: > 100 µM
- TGI [44]: 18.3 µM
- TGI [45]: 31.6 µM
- TGI [46]: 27.5 µM
- TGI [47]: 29.3 µM
- TGI [48]: 30.9 µM
- TGI [50]: 26.1 µM
- TGI [51]: 2.91 µM
- TGI [52]: 23.5 µM
- TGI [53]: 37.6 µM
- TGI [54]: 47.7 µM

Structure (SMILES): O=C(O)CC1OCC=C2CN3CCC45c6ccccc6NC4C1C2CC35 (stereo not given)
- TGI [1]: > 100 µM
- TGI [55]: > 100 µM
- TGI [2]: > 100 µM
- TGI [3]: > 100 µM
- TGI [4]: > 100 µM
- TGI [5]: > 100 µM
- TGI [6]: > 100 µM
- TGI [59]: > 100 µM
- TGI [56]: > 100 µM
- TGI [7]: > 100 µM
- TGI [8]: > 100 µM
- TGI [9]: > 100 µM
- TGI [10]: > 100 µM
- TGI [11]: > 100 µM
- TGI [12]: > 100 µM
- TGI [13]: > 100 µM
- TGI [15]: > 100 µM
- TGI [16]: > 100 µM
- TGI [17]: > 100 µM
- TGI [18]: > 100 µM
- TGI [19]: > 100 µM
- TGI [20]: > 100 µM
- TGI [21]: > 100 µM
- TGI [22]: > 100 µM
- TGI [23]: > 100 µM
- TGI [25]: > 100 µM
- TGI [26]: > 100 µM
- TGI [27]: > 100 µM
- TGI [28]: > 100 µM
- TGI [29]: > 100 µM
- TGI [30]: > 100 µM
- TGI [32]: > 100 µM
- TGI [33]: > 100 µM
- TGI [34]: > 100 µM
- TGI [35]: > 100 µM
- TGI [36]: > 100 µM
- TGI [37]: > 100 µM
- TGI [38]: > 100 µM
- TGI [39]: > 100 µM
- TGI [40]: > 100 µM
- TGI [58]: > 100 µM
- TGI [41]: > 100 µM
- TGI [42]: > 100 µM
- TGI [43]: > 100 µM
- TGI [44]: > 100 µM
- TGI [45]: > 100 µM
- TGI [46]: > 100 µM
- TGI [47]: > 100 µM
- TGI [48]: > 100 µM
- TGI [49]: > 100 µM
- TGI [50]: > 100 µM
- TGI [51]: > 100 µM
- TGI [52]: > 100 µM
- TGI [53]: > 100 µM
- TGI [54]: > 100 µM

— PubChem BioAssay (NCI)
